The text below walks through data of publication PMC9243654 (Frontiers in Nutrition, 2022).

For series [1] the following is noted: cited from earlier work.
For series [2] the following is noted: ref PubChem database, cited from earlier work.
Series [3] in a line: in vitro. The essentials: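 PAMPA-BBB with lipid membrane of PBL and cholesterol in n-dodecane; donor contains extract in EtOH/PBS pH 7.4 (1:1), acceptor PBS. Incubated 4 h at 37°C in the dark; donor and acceptor analysed by UHPLC-Q-TOF-MS, Pe calculated from acceptor and equilibrium concentrations.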
Where [4] appears, read: compounds from Ginkgo biloba L. extract, ref Könczöl et al. ([69]).
Setting [5] is: PAMPA, pH 7.4, PAMPA-BBB log Pe (cm s−1).

Like-named read-outs stand apart in the source and are kept apart here.

As a reminder, the Log P is the decadic logarithm of the partition coefficient of the neutral form, usually between octanol and water. A word on the Papp: it is the rate of passage across a membrane or cell layer, normalised by area and donor concentration. For the compound `COc1cc(-c2oc3cc(O)cc(O)c3c(=O)c2O)ccc1O` [Isorhamnetin], the “PAMPA-BBB logPe” value in series [1] (setting [4]) is recorded as −5.46. Also, the “Log P” value in series [2] (compounds of RSFE extract, octanol-water partition coefficient) is given as 1.9. In addition, the “Cross BBB potential” value in series [3] (PAMPA) is listed as “+++ (key: -: not detected in acceptor; +: log Pe > −6.5; ++: log Pe > −5.5; +++: log Pe > −4.5)”. Also, the Papp in series [3] (setting [5]) is 49 ×10⁻⁶ cm/s.

As to `O=c1cc(-c2ccc(O)cc2)oc2cc(O)cc(O)c12` [Apigenin], the “PAMPA-BBB logPe” value in series [1] (setting [4]) was −5.35. In series [3] (setting [5]), the apparent permeability coefficient (Papp) was 26.3 ×10⁻⁶ cm/s. The “Cross BBB potential” value in series [3] (compound within RSFE extract) is given as “++ (log Pe > −5.5)”.

Take `O=c1c(O)c(-c2ccc(O)cc2)oc2cc(O)cc(O)c12` [Kaempferol]: the “PAMPA-BBB logPe” value in series [1] (PAMPA) is −5.13. In addition, the “Log P” value in series [2] (compounds identified in LPLE extract), in series [2] (compounds of ASFE extract) and in series [2] (compounds of KD extract) was 1.9 each time. Also, the apparent permeability (Papp) at 4 h was 2.29 ×10⁻⁶ cm/s in series [3] (PAMPA, pH 7.4, PAMPA-BBB log Pe (cm s−1), compound within ASFE extract, 4 h, 37°C, PBS pH 7.4); 14.8 ×10⁻⁶ cm/s in series [3] (PAMPA, pH 7.4, PAMPA-BBB log Pe (cm s−1), compound within KD extract, 4 h, 37°C, PBS pH 7.4); 21.4 ×10⁻⁶ cm/s in series [3] (PAMPA, pH 7.4, PAMPA-BBB log Pe, compound within LPLE (Nothofagus pumilio, lenga PLE extract), N.D = not detected in acceptor).
